In the supplement of paper PMC4862054:

Tests used:
[1] = system: MFM-223; assay: normalised response (% of control), CellTiter-Glo; higher = more viable cells (100 = DMSO, 0 = benzethonium chloride kill control); conditions: incubation time: 72 h
How it was run: (§1)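 CellTox Green fluorescence (485/520 nm) and, after 10 min at room temperature, CellTiter-Glo luminescence were read from breast cancer cell lines incubated 72 h in 384-well plates. Cells were seeded as 20 µl suspension onto compound at 5 concentrations in 10-fold steps over a 10,000-fold range chosen per compound. Each plate was normalised to 0.1 % DMSO (100) and a positive kill control (0). Values are normalised signals, one per concentration.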

[2] = system: SK-BR-3; assay: as above; conditions: incubation time: 72 h
How it was run: as §1

[3] = system: MDA-MB-231; assay: as above; conditions: incubation time: 72 h
How it was run: as §1

[4] = system: CAL-85-1; assay: as above; conditions: incubation time: 72 h
How it was run: as §1

[5] = system: HCC1143; assay: as above; conditions: incubation time: 72 h
How it was run: as §1

[6] = system: DU-4475; assay: as above; conditions: incubation time: 72 h
How it was run: as §1

[7] = system: CAL-148; assay: as above; conditions: incubation time: 72 h
How it was run: as §1

[8] = system: BT-474; assay: as above; conditions: incubation time: 72 h
How it was run: as §1

[9] = system: HDQ-P1; assay: as above; conditions: incubation time: 72 h
How it was run: as §1

[10] = system: BT-549; assay: as above; conditions: incubation time: 72 h
How it was run: as §1

[11] = system: HCC1937; assay: as above; conditions: incubation time: 72 h
How it was run: as §1

[12] = system: MDA-MB-436; assay: as above; conditions: incubation time: 72 h
How it was run: as §1

[13] = system: CAL-51; assay: as above; conditions: incubation time: 72 h
How it was run: as §1

[14] = system: MDA-MB-468; assay: as above; conditions: incubation time: 72 h
How it was run: as §1

[15] = system: HDQ-P1; conditions: 72 h
How it was run: (§2)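 For viability, cells received 2.5 µl CellTiter-Blue for 2 h at 37 °C and fluorescence was read at 560/590 nm. Before this, breast cancer cell lines in 20 µl suspension had been incubated for 72 h on 384-well plates pre-loaded with compound dissolved in 5 µl medium. EC50 was obtained from a percent-inhibition dose-response fit censored at the highest concentration, after normalisation of each plate to vehicle and a positive kill control; rows with a zero drug sensitivity score were discarded.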

[16] = system: MFM-223; conditions: 72 h
How it was run: as §2

[17] = system: MDA-MB-231; conditions: 72 h
How it was run: as §2

[18] = system: HCC1143; conditions: 72 h
How it was run: as §2

[19] = system: BT-549; conditions: 72 h
How it was run: as §2

[20] = system: HCC1937; conditions: 72 h
How it was run: as §2

[21] = system: MDA-MB-436; conditions: 72 h
How it was run: as §2

[22] = system: MDA-MB-468; conditions: 72 h
How it was run: as §2

[23] = system: HCC1599; conditions: 72 h
How it was run: as §2

[24] = system: Hs578T; conditions: 72 h
How it was run: as §2

EC50, CellTiter-Blue viability [17] [nM]	EC50, CellTiter-Blue viability [18] [nM]	EC50, CellTiter-Blue viability [19] [nM]	EC50, CellTiter-Blue viability [20] [nM]	EC50, CellTiter-Blue viability [21] [nM]	EC50, CellTiter-Blue viability [23] [nM]	SMILES	normalised response [1] [%]	normalised response [2] [%]	normalised response [3] [%]	normalised response [4] [%]	normalised response [5] [%]	normalised response [6] [%]	normalised response [7] [%]	normalised response [8] [%]	normalised response [9] [%]	normalised response [10] [%]	normalised response [11] [%]	normalised response [12] [%]	normalised response [13] [%]	normalised response [14] [%]	EC50, CellTiter-Blue viability [15] [nM]	EC50, CellTiter-Blue viability [16] [nM]	EC50, CellTiter-Blue viability [22] [nM]	EC50, CellTiter-Blue viability [24] [nM]
						COc1ccc(S(=O)(=O)Nc2cccnc2Nc2ccc(O)cc2)cc1 [ABT-751] (1000 nM)	69.3	36.1	63.6	34.7	67.3	81.6	87.2	63.8	71.1	48.9	77.8	38.7	104	36.9				
						Cc1cc(Nc2nc(N[C@@H](C)c3ncc(F)cn3)ncc2Cl)[nH]n1 [AZD1480] (100 nM)	71.9	91.8	97.8	100	107	92.1	87.5	99.7	102	105	101	103	117	104				
1170	2570	2180	1370	91.7		CNC(=O)c1ccccc1Sc1ccc2c(/C=C/c3ccccn3)n[nH]c2c1 [Axitinib]															474	163	6660	
						CNC(=O)c1ccccc1Sc1ccc2c(/C=C/c3ccccn3)n[nH]c2c1 [Axitinib] (1000 nM)	59.8	90.5	111	117	94.6	102	103	102	96.8	103	88.6	97.8	59.4	83.9				
						CC(O)(CS(=O)(=O)c1ccc(F)cc1)C(=O)Nc1ccc(C#N)c(C(F)(F)F)c1 (stereo not drawn) [Bicalutamide]																	> 10000	
						CC(O)(CS(=O)(=O)c1ccc(F)cc1)C(=O)Nc1ccc(C#N)c(C(F)(F)F)c1 (stereo not drawn) [Bicalutamide] (1000 nM)	102	109	112	107	101	99	102	110	108	97.6	100	107	101	110				
						CCNC(=O)CCC/C=C\C[C@@H]1[C@@H](/C=C/[C@@H](O)CCc2ccccc2)[C@H](O)C[C@@H]1O [Bimatoprost] (550 nM)	90.3	88.7	97.1	96.3	92.5	98.3	93.6	96.7	95.4	104	94.5	108	102	95.2				
						COc1cc(Nc2c(C#N)cnc3cc(OCCCN4CCN(C)CC4)c(OC)cc23)c(Cl)cc1Cl [Bosutinib] (1000 nM)	84	97.1	81.6	72.2	84.7	99.8	101	90.7	51.2	95.2	78.8	87.8	77.2	81				
						Cn1cc(C2=C(c3cn(C4CCN(Cc5ccccn5)CC4)c4ccccc34)C(=O)NC2=O)c2ccccc21 [Enzastaurin] (1000 nM)	97.5	97.7	100	109	92.4	106	104	93.1	91.2	95.8	98.4	109	74.7	96.3				
						CC(C)(C)NC(=O)[C@H]1CC[C@H]2[C@@H]3CC[C@H]4NC(=O)C=C[C@]4(C)[C@H]3CC[C@]12C [Finasteride]																8260		
						CC(C)(C)NC(=O)[C@H]1CC[C@H]2[C@@H]3CC[C@H]4NC(=O)C=C[C@]4(C)[C@H]3CC[C@]12C [Finasteride] (1000 nM)	103	102	95.2	95	96.6	96.8	91.8	98.9	105	90.7	99.6	108	94.6	104				
						Nc1ccn([C@@H]2O[C@H](CO)[C@@H](O)C2(F)F)c(=O)n1 [Gemcitabine] (100 nM)	101	41.5	85	43.1	44.1	74.5	56	81.8	86	49.7	79.2	32.6	24.4	28.4				
						CC(C)C[C@H](NC(=O)[C@@H](COC(C)(C)C)NC(=O)[C@H](Cc1ccc(O)cc1)NC(=O)[C@H](CO)NC(=O)[C@H](Cc1c[nH]c2ccccc12)NC(=O)[C@H](Cc1cnc[nH]1)NC(=O)[C@@H]1CCC(=O)N1)C(=O)N[C@@H](CCCNC(=N)N)C(=O)N1CCC[C@H]1C(=O)NNC(N)=O [Goserelin] (1000 nM)	99.6	94.3	100	98.2	92.3	96.3	93.1	101	101	98.6	98.2	93.8	100	94.3				
						CC(=O)[C@]1(O)Cc2c(O)c3c(c(O)c2[C@@H](O[C@H]2C[C@H](N)[C@H](O)[C@H](C)O2)C1)C(=O)c1ccccc1C3=O [Idarubicin] (100 nM)	117	83.4	94.7	91	102	83.1	63.5	92.3	103	62.6	98	65.7	42.6	64.5				
						C/C(=C\c1csc(C)n1)[C@@H]1C[C@@H]2O[C@]2(C)CCC[C@H](C)[C@H](O)[C@@H](C)C(=O)C(C)(C)[C@@H](O)CC(=O)N1 [Ixabepilone] (100 nM)	105	106	96.9	99.5	97.5	102	97.8	103	100	23.6	102	101	30.6	29.1				
						C=CCn1c(=O)c2cnc(Nc3ccc(N4CCN(C)CC4)cc3)nc2n1-c1cccc(C(C)(C)O)n1 [MK1775] (1000 nM)	41.2	14.4	23.6	18.7	43.2	65.6	12.2	33.3	35.9	21.2	39.6	30.8	18.5	43.4				
						CO[C@@H]1[C@H](N(C)C(=O)c2ccccc2)C[C@H]2O[C@]1(C)n1c3ccccc3c3c4c(c5c6ccccc6n2c5c31)C(=O)NC4 [Midostaurin] (1000 nM)	75.8	61.4	50.3	85.8	55.9	51.5	80.5	52.1	65.1	32.6	63.7	77.5	20.8	26.9				
						CO[C@@]12[C@H](COC(N)=O)C3=C(C(=O)C(C)=C(N)C3=O)N1C[C@@H]1N[C@@H]12 [Mitomycin C] (1000 nM)	90.1	96.7	97.4	95.6	99.4	96.9	90.9	90.2	97	65.7	95.2	88.3	60.2	86				
						CCNC(=O)c1noc(-c2cc(C(C)C)c(O)cc2O)c1-c1ccc(CN2CCOCC2)cc1 [NVP-AUY922] (100 nM)	43.4	35.8	24.6	20.5	36.8	0.04	27.6	25	23.5	41.1	28.7	44.6	14.8	28.7				
						CC1(C)CCC(c2ccc(Cl)cc2)=C(CN2CCN(c3ccc(C(=O)NS(=O)(=O)c4ccc(N[C@H](CCN5CCOCC5)CSc5ccccc5)c(S(=O)(=O)C(F)(F)F)c4)cc3)CC2)C1 [Navitoclax] (1000 nM)	85.8	85.5	49.2	90	82.9	85.9	78.5	58.1	73	92.5	83.4	95.3	90.8	82.8				
		2590	117			Cc1cn(-c2cc(NC(=O)c3ccc(C)c(Nc4nccc(-c5cccnc5)n4)c3)cc(C(F)(F)F)c2)cn1 [Nilotinib]																		
						Cc1cn(-c2cc(NC(=O)c3ccc(C)c(Nc4nccc(-c5cccnc5)n4)c3)cc(C(F)(F)F)c2)cn1 [Nilotinib] (1000 nM)	97.3	97.5	96.5	102	94	97.7	84.4	92.9	104	109	96.5	103	70.9	93				
	> 10000	684		2500	2290	CC[C@H](CO)Nc1nc(NCc2ccccc2)c2ncn(C(C)C)c2n1 [Roscovitine]																		7660
						O=C(CCCCCCC(=O)Nc1ccccc1)NO [Vorinostat] (1000 nM)	91.6	89.5	85.4	93.7	90.2	86.5	90.6	89.4	85	100	85.2	89.6	72.2	69.4				
